The text below walks through data of patent publication US9839642B2, “Beta-tetrazolyl-propionic acids as metallo-beta-lactamase inhibitors” (priority 2014, dated 2017).

As usually defined, the IC50 is the midpoint of a concentration-inhibition curve.

The subject of assay [1] is Klebsiella pneumoniae expressing VIM-1 (IHMA599644). In words: Antibiotic potentiation activity: synergistic concentration (MITC95) with imipenem, growth by OD600. It is filed as cell-based. The settings on record: K. pneumoniae IHMA599644 (VIM-1), 95% inhibition of growth. The method in brief:
(§1)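 Strains grown overnight at 35° C, resuspended in saline, diluted 1:100 into 1.1×CAMHB; imipenem at 1 μg/ml or 4 μg/ml with test compound 200 μM to 0.195 μM. Incubated 22 hours to 24 hours at 35° C, OD600 read; MITC95 is lowest compound concentration inhibiting 95% of growth.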

Assay [2] has as its system Escherichia coli expressing NDM-1 (CLB30016). The assay is described as above. The format is cell-based. The following applies: E. coli CLB30016 (NDM-1), 95% inhibition of growth. The method in brief:
as §1

Assay [3] concerns Serratia marcescens expressing IMP-1 (CL5741). The description is as above. It is filed as cell-based. The settings on record: S. marcescens CL5741 (IMP-1), 95% inhibition of growth. In a few lines: as §1
In a further assay the target is NDM-1 (Klebsiella pneumoniae, UniProt C7C422). In words: Enzyme activity: determination of IC50, fluorescence assay with CCF2-FA substrate. It is filed as biochemical. The following applies: NDM-1 enzyme 1 pM, CCF2-FA 1.25 μM, 2 hours at 25° C.; read-out: NDM1 IC50. In a few lines:
(§2)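 Read-out: fluorescence, ex 405 nm / em 460 nm, after 2 h at 25° C with 1.25 μM CCF2-FA. Buffer 100 mM KH2PO4 pH 7, 0.005% Tween-20, 10 μM ZnSO4; enzyme 1 pM NDM-1, 2 pM IMP-1, 30 pM VIM-1. IC50 by 4-parameter fit.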

The next assay deals with IMP-1 (Serratia marcescens, UniProt P52699). The description is as above. It is filed as biochemical. The settings on record: IMP-1 enzyme 2 pM, CCF2-FA 1.25 μM, 2 hours at 25° C.; read-out: IMP1 IC50. In a few lines: as §2
Sequence of IMP-1 (P52699 19-246, looked up, species assumed): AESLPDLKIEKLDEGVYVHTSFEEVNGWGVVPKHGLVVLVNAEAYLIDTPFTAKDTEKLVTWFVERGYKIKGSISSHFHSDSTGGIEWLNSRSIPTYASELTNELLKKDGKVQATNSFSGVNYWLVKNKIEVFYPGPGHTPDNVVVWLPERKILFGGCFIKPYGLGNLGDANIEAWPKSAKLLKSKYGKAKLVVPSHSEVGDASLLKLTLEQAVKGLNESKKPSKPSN
A further assay deals with VIM-1 (Pseudomonas aeruginosa, UniProt A0A0F7KYQ8). The description is as above. It is filed as biochemical. The following applies: VIM-1 enzyme 30 pM, CCF2-FA 1.25 μM, 2 hours at 25° C.; read-out: VIM1 IC50. In a few lines: as §2

Sequence of NDM-1 (C7C422 29-270, looked up, species assumed): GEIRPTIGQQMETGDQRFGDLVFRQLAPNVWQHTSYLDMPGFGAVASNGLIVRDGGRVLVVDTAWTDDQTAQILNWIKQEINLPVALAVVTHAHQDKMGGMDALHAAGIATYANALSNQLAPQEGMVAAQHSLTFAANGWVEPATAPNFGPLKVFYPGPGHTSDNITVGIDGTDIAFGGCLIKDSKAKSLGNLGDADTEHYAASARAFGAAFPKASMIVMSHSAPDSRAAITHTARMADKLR

Consider `CC(C)C[C@H](C(=O)O)[C@H](Cc1ccc(N2CCC(CN)C2)nc1)c1nnn[nH]1` (stereo partly drawn) [Example 306, (2S)-2-[(1S)-2-{6-[3-(aminomethyl)pyrrolidin-1-yl]pyridin-3-yl}-1-(1H-tetrazol-5-yl)ethyl]-4-methylpentanoic acid], for which, in assay [1], the “VIM1 KP599644 MITC95” value was found to be 12.5 µM. For the same compound, the “NDM1 EC30016 MITC95” value in assay [2] is 3.1 µM. Further, the “IMP1 SM5741 MITC95” value in assay [3] is 25 µM. Further, the IC50 at NDM-1 came to 0.67 µM; on IMP-1 it was 2.7 µM; at VIM-1 it was 0.013 µM.
For the compound `CC(C)C[C@H](C(=O)O)[C@H](Cc1ccc(N2CCC(CN)CC2)nc1)c1nnn[nH]1` [Example 307, (2S)-2-[(1S)-2-{6-[4-(aminomethyl)piperidin-1-yl]pyridin-3-yl}-1-(1H-tetrazol-5-yl)ethyl]-4-methylpentanoic acid], the “VIM1 KP599644 MITC95” value in assay [1] is 25 µM. Moreover, in assay [2], the “NDM1 EC30016 MITC95” value came out at 4.7 µM. The “IMP1 SM5741 MITC95” value in assay [3] is 6.2 µM. The IC50 is 0.12 µM at NDM-1, 0.39 µM at IMP-1 and 0.024 µM on VIM-1.
Consider `CC(C)C[C@H](C(=O)O)[C@H](Cc1ccc(N2CCC3(CC2)CNC3)nc1)c1nnn[nH]1` [Example 308, (2S)-2-[(1S)-2-[6-(2,7-diazaspiro[3.5]non-7-yl)pyridin-3-yl]-1-(1H-tetrazol-5-yl)ethyl]-4-methylpentanoic acid], for which the “VIM1 KP599644 MITC95” value in assay [1] turned out to be 25 µM. Moreover, the “NDM1 EC30016 MITC95” value in assay [2] was 3.1 µM. For the same compound, the “IMP1 SM5741 MITC95” value in assay [3] was determined as 9.4 µM. Also, the IC50 was determined as 0.12 µM on NDM-1, 0.37 µM at IMP-1 and 0.032 µM on VIM-1.
Take `CC(C)C[C@H](C(=O)O)[C@H](Cc1ccc(N2CCCC(CO)C2)nc1)c1nnn[nH]1` (stereo partly drawn) [Example 309, (2S)-2-[(1S)-2-{6-[3-(hydroxymethyl)piperidin-1-yl]pyridin-3-yl}-1-(1H-tetrazol-5-yl)ethyl]-4-methylpentanoic acid]: the “VIM1 KP599644 MITC95” value in assay [1] is 75 µM. Besides, the “NDM1 EC30016 MITC95” value in assay [2] stood at 6.2 µM. The “IMP1 SM5741 MITC95” value in assay [3] is 6.2 µM. Besides, the IC50 at NDM-1 stood at 0.062 µM; on IMP-1, 0.15 µM; on VIM-1 it was 0.024 µM.
Consider `CC(C)C[C@H](C(=O)O)[C@H](Cc1ccc(N2CCC(N)C2)nc1)c1nnn[nH]1` (stereo partly drawn) [Example 310, (2S)-2-[(1S)-2-[6-(3-aminopyrrolidin-1-yl)pyridin-3-yl]-1-(1H-tetrazol-5-yl)ethyl]-4-methylpentanoic acid], for which the “VIM1 KP599644 MITC95” value in assay [1] was found to be 12.5 µM. Besides, in assay [2], the “NDM1 EC30016 MITC95” value was 4.7 µM. Moreover, in assay [3], the “IMP1 SM5741 MITC95” value was 25 µM. In addition, the IC50 at NDM-1 came to 0.43 µM; on IMP-1, 1.8 µM; on VIM-1, 0.0046 µM.
Turning to `CNC(=O)C1CCCN(c2ccc(C[C@H](c3nnn[nH]3)[C@H](CC(C)C)C(=O)O)cn2)C1` (stereo partly drawn) [Example 311, (2S)-4-methyl-2-[(1S)-2-{6-[3-(methylcarbamoyl)piperidin-1-yl]pyridin-3-yl}-1-(1H-tetrazol-5-yl)ethyl] pentanoic acid], the “VIM1 KP599644 MITC95” value in assay [1] amounted to 100 µM. The “NDM1 EC30016 MITC95” value in assay [2] was 6.2 µM. In addition, the “IMP1 SM5741 MITC95” value in assay [3] came to 9.4 µM. Further, the IC50 on NDM-1 worked out at 0.087 µM; at IMP-1 it was 0.15 µM; at VIM-1, 0.026 µM.
As to `CC(C)C[C@H](C(=O)O)[C@H](Cc1ccc(N2CCC(CNS(C)(=O)=O)CC2)nc1)c1nnn[nH]1` [Example 312, (2S)-4-methyl-2-[(1S)-2-[6-(4-{[(methylsulfonyl)amino]methyl}piperidin-1-yl)pyridin-3-yl]-1-(1H-tetrazol-5-yl)ethyl]pentanoic acid], in assay [1], the “VIM1 KP599644 MITC95” value came out at 150 µM. The “NDM1 EC30016 MITC95” value in assay [2] was 9.4 µM. Moreover, the “IMP1 SM5741 MITC95” value in assay [3] is 31 µM. In addition, the IC50 on NDM-1 is 0.042 µM; on IMP-1, 0.25 µM; on VIM-1, 0.048 µM.
Regarding `CC(C)C[C@H](C(=O)O)[C@H](Cc1ccc(N2CCC(O)C2)nc1)c1nnn[nH]1` (stereo partly drawn) [Example 313, (2S)-2-[(1S)-2-[6-(3-hydroxypyrrolidin-1-yl)pyridin-3-yl]-1-(1H-tetrazol-5-yl)ethyl]-4-methylpentanoic acid], the “VIM1 KP599644 MITC95” value in assay [1] was found to be 12.5 µM. In addition, the “NDM1 EC30016 MITC95” value in assay [2] stood at 1.6 µM. Further, the “IMP1 SM5741 MITC95” value in assay [3] stood at 12.5 µM. Further, the IC50 came out at 0.075 µM on NDM-1, 0.36 µM at IMP-1 and 0.0038 µM on VIM-1.
For the compound `CC(C)C[C@H](C(=O)O)[C@H](Cc1ccc(N2CCC(CO)CC2)nc1)c1nnn[nH]1` [Example 314, (2S)-2-[(1S)-2-{6-[4-(hydroxymethyl)piperidin-1-yl]pyridin-3-yl}-1-(1H-tetrazol-5-yl)ethyl]-4-methylpentanoic acid], the “VIM1 KP599644 MITC95” value in assay [1] is 75 µM. Moreover, in assay [2], the “NDM1 EC30016 MITC95” value came to 6.2 µM. In addition, the “IMP1 SM5741 MITC95” value in assay [3] turned out to be 12.5 µM. For the same compound, the figures for the IC50 at NDM-1, on IMP-1 and at VIM-1 were 0.049 µM, 0.19 µM and 0.016 µM, respectively.
Regarding `CC(C)C[C@H](C(=O)O)[C@H](Cc1ccc(N2CCCC2CO)nc1)c1nnn[nH]1` (stereo partly drawn) [Example 315, (2S)-2-[(1S)-2-{6-[2-(hydroxymethyl)pyrrolidin-1-yl]pyridin-3-yl}-1-(1H-tetrazol-5-yl)ethyl]-4-methylpentanoic acid], in assay [1], the “VIM1 KP599644 MITC95” value stood at 38 µM. In addition, the “NDM1 EC30016 MITC95” value in assay [2] worked out at 3.1 µM. The “IMP1 SM5741 MITC95” value in assay [3] was 6.2 µM. In addition, the half-inhibitory concentration (IC50) at NDM-1 worked out at 0.067 µM; on IMP-1, 0.061 µM; at VIM-1, 0.006 µM.
Consider `CC(C)C[C@H](C(=O)O)[C@H](Cc1ccc(N[C@@H]2CC[C@H](N)C2)nc1)c1nnn[nH]1` [Example 316, (2S)-2-[(1S)-2-(6-{[(1R,3S)-3-aminocyclopentyl]amino}pyridin-3-yl)-1-(1H-tetrazol-5-yl)ethyl]-4-methylpentanoic acid], for which the “VIM1 KP599644 MITC95” value in assay [1] came to 12.5 µM. Moreover, the “NDM1 EC30016 MITC95” value in assay [2] was 1.6 µM. Moreover, in assay [3], the “IMP1 SM5741 MITC95” value amounted to 12.5 µM. For the same compound, the IC50 turned out to be 0.45 µM on NDM-1, 1.2 µM at IMP-1 and 0.022 µM at VIM-1.
`CC(C)C[C@H](C(=O)O)[C@H](Cc1ccc(N[C@H]2CC[C@H](N)C2)nc1)c1nnn[nH]1` [Example 317, (2S)-2-[(1S)-2-(6-{[(1S,3S)-3-aminocyclopentyl]amino}pyridin-3-yl)-1-(1H-tetrazol-5-yl)ethyl]-4-methylpentanoic acid]: the “VIM1 KP599644 MITC95” value in assay [1] amounted to 18.8 µM. In addition, in assay [2], the “NDM1 EC30016 MITC95” value worked out at 1.6 µM. Besides, the “IMP1 SM5741 MITC95” value in assay [3] was found to be 12.5 µM. In addition, the IC50 on NDM-1 is 0.35 µM; at IMP-1, 1.6 µM; at VIM-1, 0.014 µM.
In the case of `CC(C)C[C@H](C(=O)O)[C@H](Cc1ccc(NCCC(C)N)nc1)c1nnn[nH]1` (stereo partly drawn) [Example 318, (2S)-2-[(1S)-2-{6-[(3-aminobutyl)amino]pyridin-3-yl}-1-(1H-tetrazol-5-yl)ethyl]-4-methylpentanoic acid], in assay [1], the “VIM1 KP599644 MITC95” value stood at 12.5 µM. Moreover, the “NDM1 EC30016 MITC95” value in assay [2] was 1.6 µM. In assay [3], the “IMP1 SM5741 MITC95” value stood at 18.8 µM. The IC50 is 0.37 µM on NDM-1, 2 µM on IMP-1 and 0.011 µM at VIM-1.
For the compound `CC(C)C[C@H](C(=O)O)[C@H](Cc1ccc(NC2CNCc3ccccc32)nc1)c1nnn[nH]1` (stereo partly drawn) [Example 319, (2S)-4-methyl-2-[(1S)-2-[6-(1,2,3,4-tetrahydroisoquinolin-4-ylamino)pyridin-3-yl]-1-(1H-tetrazol-5-yl)ethyl]pentanoic acid], the “VIM1 KP599644 MITC95” value in assay [1] turned out to be 25 µM. Moreover, in assay [2], the “NDM1 EC30016 MITC95” value was found to be 12.5 µM. Further, the “IMP1 SM5741 MITC95” value in assay [3] came out at 18.8 µM. Further, the IC50 came to 0.35 µM at NDM-1, 1 µM on IMP-1 and 0.013 µM at VIM-1.
Regarding `CC(C)C[C@H](C(=O)O)[C@H](Cc1ccc(NCCC(N)C(F)(F)F)nc1)c1nnn[nH]1` (stereo partly drawn) [Example 320, (2S)-2-[(1S)-2-{6-[(3-amino-4,4,4-trifluorobutyl)amino]pyridin-3-yl}-1-(1H-tetrazol-5-yl)ethyl]-4-methylpentanoic acid], the “VIM1 KP599644 MITC95” value in assay [1] is 50 µM. Besides, in assay [2], the “NDM1 EC30016 MITC95” value is 1.6 µM. In assay [3], the “IMP1 SM5741 MITC95” value was 12.5 µM. For the same compound, the IC50 was 0.083 µM on NDM-1, 0.32 µM on IMP-1 and 0.015 µM at VIM-1.
Take `CC(C)C[C@H](C(=O)O)[C@H](Cc1ccc(NC2CCNC2)nc1)c1nnn[nH]1` (stereo partly drawn) [Example 321, (2S)-4-methyl-2-[(1S)-2-[6-(pyrrolidin-3-ylamino)pyridin-3-yl]-1-(1H-tetrazol-5-yl)ethyl]pentanoic acid]: the “VIM1 KP599644 MITC95” value in assay [1] turned out to be 18.8 µM. In assay [2], the “NDM1 EC30016 MITC95” value stood at 3.1 µM. In addition, the “IMP1 SM5741 MITC95” value in assay [3] came to 18.8 µM. Besides, the IC50 at NDM-1 is 0.44 µM; on IMP-1, 1.6 µM; on VIM-1, 0.0051 µM.
